In PubChem BioAssay (NCI):
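Method: 48-hour compound exposure of cells in 96-well plates, five concentrations, linear interpolation of endpoints. GI50 is the concentration that inhibits growth by half. TGI denotes the concentration required for complete inhibition of growth.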

Assays:
Test in all cases: NCI tumour cell line growth inhibition, 48 h
786-0 renal = system: 786-0 renal
A498 renal = system: A498 renal
A549 NSCLC = system: A549 NSCLC
ACHN renal = system: ACHN renal
BT-549 breast = system: BT-549 breast
CAKI-1 renal = system: CAKI-1 renal
CCRF-CEM leukemia = system: CCRF-CEM leukemia
COLO 205 colon = system: COLO 205 colon
DU-145 prostate = system: DU-145 prostate
EKVX NSCLC = system: EKVX NSCLC
HCC-2998 colon = system: HCC-2998 colon
HCT-116 colon = system: HCT-116 colon
HCT-15 colon = system: HCT-15 colon
HL-60(TB) leukemia = system: HL-60(TB) leukemia
HOP-62 NSCLC = system: HOP-62 NSCLC
HOP-92 NSCLC = system: HOP-92 NSCLC
HS 578T breast = system: HS 578T breast
HT29 colon = system: HT29 colon
IGROV1 ovarian = system: IGROV1 ovarian
K-562 leukemia = system: K-562 leukemia
KM12 colon = system: KM12 colon
LOX IMVI melanoma = system: LOX IMVI melanoma
M14 melanoma = system: M14 melanoma
MALME-3M melanoma = system: MALME-3M melanoma
MCF7 breast = system: MCF7 breast
MDA-MB-231 breast = system: MDA-MB-231 breast
MDA-MB-435 = system: MDA-MB-435
MDA-MB-468 breast = system: MDA-MB-468 breast
MOLT-4 leukemia = system: MOLT-4 leukemia
NCI-H226 lung = system: NCI-H226 lung
NCI-H23 lung = system: NCI-H23 lung
NCI-H460 lung = system: NCI-H460 lung
NCI-H522 lung = system: NCI-H522 lung
NCI/ADR-RES ovarian = system: NCI/ADR-RES ovarian
OVCAR-3 ovarian = system: OVCAR-3 ovarian
OVCAR-4 ovarian = system: OVCAR-4 ovarian
OVCAR-5 ovarian = system: OVCAR-5 ovarian
OVCAR-8 ovarian = system: OVCAR-8 ovarian
PC-3 prostate = system: PC-3 prostate
RPMI-8226 leukemia = system: RPMI-8226 leukemia
RXF 393 renal = system: RXF 393 renal
SF-268 CNS = system: SF-268 CNS
SF-295 CNS = system: SF-295 CNS
SF-539 CNS = system: SF-539 CNS
SK-MEL-2 melanoma = system: SK-MEL-2 melanoma
SK-MEL-28 melanoma = system: SK-MEL-28 melanoma
SK-MEL-5 melanoma = system: SK-MEL-5 melanoma
SK-OV-3 ovarian = system: SK-OV-3 ovarian
SN12C renal = system: SN12C renal
SNB-19 CNS = system: SNB-19 CNS
SNB-75 CNS = system: SNB-75 CNS
SR leukemia = system: SR leukemia
SW-620 colon = system: SW-620 colon
T-47D breast = system: T-47D breast
TK-10 renal = system: TK-10 renal
U251 CNS = system: U251 CNS
UACC-257 melanoma = system: UACC-257 melanoma
UACC-62 melanoma = system: UACC-62 melanoma
UO-31 renal = system: UO-31 renal

Question: Which results are given for `C#C[C@]1(O)CC[C@H]2[C@@H]3CC=C4c5sc(Nc6cc(C)cc(C)n6)nc5CC[C@]4(C)[C@H]3CC[C@@]21C`?
Answer: GI50 (786-0 renal): > 100 µM; TGI (786-0 renal): > 100 µM; GI50 (A498 renal): > 100 µM; TGI (A498 renal): > 100 µM; GI50 (A549 NSCLC): > 100 µM; TGI (A549 NSCLC): > 100 µM; GI50 (ACHN renal): > 100 µM; TGI (ACHN renal): > 100 µM; GI50 (BT-549 breast): > 100 µM; TGI (BT-549 breast): > 100 µM; GI50 (CAKI-1 renal): > 100 µM; TGI (CAKI-1 renal): > 100 µM; GI50 (CCRF-CEM leukemia): > 100 µM; TGI (CCRF-CEM leukemia): > 100 µM; GI50 (COLO 205 colon): > 100 µM; TGI (COLO 205 colon): > 100 µM; GI50 (DU-145 prostate): > 100 µM; TGI (DU-145 prostate): > 100 µM; GI50 (EKVX NSCLC): > 100 µM; TGI (EKVX NSCLC): > 100 µM; GI50 (HCC-2998 colon): > 100 µM; TGI (HCC-2998 colon): > 100 µM; GI50 (HCT-116 colon): > 100 µM; TGI (HCT-116 colon): > 100 µM; GI50 (HCT-15 colon): > 100 µM; TGI (HCT-15 colon): > 100 µM; GI50 (HL-60(TB) leukemia): > 100 µM; TGI (HL-60(TB) leukemia): > 100 µM; GI50 (HOP-62 NSCLC): > 100 µM; TGI (HOP-62 NSCLC): > 100 µM; GI50 (HOP-92 NSCLC): > 100 µM; TGI (HOP-92 NSCLC): > 100 µM; GI50 (HS 578T breast): > 100 µM; TGI (HS 578T breast): > 100 µM; GI50 (HT29 colon): > 100 µM; TGI (HT29 colon): > 100 µM; GI50 (IGROV1 ovarian): > 100 µM; TGI (IGROV1 ovarian): > 100 µM; GI50 (K-562 leukemia): > 100 µM; TGI (K-562 leukemia): > 100 µM; GI50 (KM12 colon): > 100 µM; TGI (KM12 colon): > 100 µM; GI50 (LOX IMVI melanoma): > 100 µM; TGI (LOX IMVI melanoma): > 100 µM; GI50 (M14 melanoma): > 100 µM; TGI (M14 melanoma): > 100 µM; GI50 (MALME-3M melanoma): > 100 µM; TGI (MALME-3M melanoma): > 100 µM; GI50 (MCF7 breast): > 100 µM; TGI (MCF7 breast): > 100 µM; GI50 (MDA-MB-231 breast): > 100 µM; TGI (MDA-MB-231 breast): > 100 µM; GI50 (MDA-MB-435): > 100 µM; TGI (MDA-MB-435): > 100 µM; GI50 (MDA-MB-468 breast): > 100 µM; TGI (MDA-MB-468 breast): > 100 µM; GI50 (MOLT-4 leukemia): > 100 µM; TGI (MOLT-4 leukemia): > 100 µM; GI50 (NCI-H226 lung): > 100 µM; TGI (NCI-H226 lung): > 100 µM; GI50 (NCI-H23 lung): > 100 µM; TGI (NCI-H23 lung): > 100 µM; GI50 (NCI-H460 lung): > 100 µM; TGI (NCI-H460 lung): > 100 µM; GI50 (NCI-H522 lung): > 100 µM; TGI (NCI-H522 lung): > 100 µM; GI50 (NCI/ADR-RES ovarian): > 100 µM; TGI (NCI/ADR-RES ovarian): > 100 µM; GI50 (OVCAR-3 ovarian): > 100 µM; TGI (OVCAR-3 ovarian): > 100 µM; GI50 (OVCAR-4 ovarian): > 100 µM; TGI (OVCAR-4 ovarian): > 100 µM; GI50 (OVCAR-5 ovarian): > 100 µM; TGI (OVCAR-5 ovarian): > 100 µM; GI50 (OVCAR-8 ovarian): > 100 µM; TGI (OVCAR-8 ovarian): > 100 µM; GI50 (PC-3 prostate): > 100 µM; TGI (PC-3 prostate): > 100 µM; GI50 (RPMI-8226 leukemia): > 100 µM; TGI (RPMI-8226 leukemia): > 100 µM; GI50 (RXF 393 renal): > 100 µM; TGI (RXF 393 renal): > 100 µM; GI50 (SF-268 CNS): > 100 µM; TGI (SF-268 CNS): > 100 µM; GI50 (SF-295 CNS): > 100 µM; TGI (SF-295 CNS): > 100 µM; GI50 (SF-539 CNS): > 100 µM; TGI (SF-539 CNS): > 100 µM; GI50 (SK-MEL-2 melanoma): > 100 µM; TGI (SK-MEL-2 melanoma): > 100 µM; GI50 (SK-MEL-28 melanoma): > 100 µM; TGI (SK-MEL-28 melanoma): > 100 µM; GI50 (SK-MEL-5 melanoma): > 100 µM; TGI (SK-MEL-5 melanoma): > 100 µM; GI50 (SK-OV-3 ovarian): > 100 µM; TGI (SK-OV-3 ovarian): > 100 µM; GI50 (SN12C renal): > 100 µM; TGI (SN12C renal): > 100 µM; GI50 (SNB-19 CNS): > 100 µM; TGI (SNB-19 CNS): > 100 µM; GI50 (SNB-75 CNS): > 100 µM; TGI (SNB-75 CNS): > 100 µM; GI50 (SR leukemia): > 100 µM; TGI (SR leukemia): > 100 µM; GI50 (SW-620 colon): > 100 µM; TGI (SW-620 colon): > 100 µM; GI50 (T-47D breast): > 100 µM; TGI (T-47D breast): > 100 µM; GI50 (TK-10 renal): > 100 µM; TGI (TK-10 renal): > 100 µM; GI50 (U251 CNS): > 100 µM; TGI (U251 CNS): > 100 µM; GI50 (UACC-257 melanoma): > 100 µM; TGI (UACC-257 melanoma): > 100 µM; GI50 (UACC-62 melanoma): > 100 µM; TGI (UACC-62 melanoma): > 100 µM; GI50 (UO-31 renal): > 100 µM; TGI (UO-31 renal): > 100 µM
